The nature of data set [1]: Caco-2 membrane permeability evaluation (improved method, 20-24 h pre-incubation, 96-well). It is filed as in vitro ADME. Particulars: human; for Papp at 180 min: commercially available middle molecular weight compounds; for Papp A→B at 180 min: cyclic peptides, pre-incubation 20-24 h, apical pH 6.0, basal pH 7.4 4% BSA.
Method: After Caco-2 cells were cultured on a 96-well transwell for three weeks, DMEM+FaSSIF (1% DMSO)+the compound was added to the Apical side and DMEM was added to the Basal side, and this was pre-incubated under 5% CO2 at 37° C. and 80 rpm for 20 hours to 24 hours. After pre-incubation, the pre-incubation solutions on the Apical and Basal sides were removed by aspiration and washed, a permeability test was initiated by adding FaSSIF/HBSS buffer (pH 6.0) containing the compound to the Apical side and HBSS buffer (pH 7.4) containing 4% BSA to the Basal side. Each well was shaken under 5% CO2, at 37° C. and 80 rpm. […] The permeability coefficient was calculated from the amount of permeation.
More specifically, after Caco-2 cells were cultured on a 96-well transwell for three weeks, DMEM+FaSSIF (1% DMSO)+the compound was added to the Apical side and DMEM was added to the Basal side, and this was pre-incubated at 5% CO2, 37° C., and 80 rpm for 20 hours to 24 hours. After pre-incubation, the pre-incubation solutions on the Apical side and on the Basal side were removed by aspiration and washed, FaSSIF/HBSS buffer (1% DMSO) (pH 6.0) containing the compound was added to the Apical side, and HBSS buffer (4% BSA) (pH 7.4) was added to the Basal side, and membrane permeability assays were initiated. […] From the amount of permeation, the membrane permeability coefficient (Papp) was calculated.
A short description of data set [2]: Log D (pH 7.4) measurement, n-octanol/buffer. Particulars: n-octanol/pH 7.4 buffer.
Method: (§1) A two-phase separated solution of n-octanol and a pH 7.4 buffer was prepared, a DMSO solution of the drug was added to the prepared two-phase-separated solution. After shaking (room temperature, 1800 rpm, two hours), the solution was centrifuged (3000 rpm, ten minutes), only the buffer fractions were collected, and drug concentrations in the buffer fractions were measured by LC/MS. Log D (pH 7.4) was calculated from the measured drug concentrations.
For data set [3] the following is noted: cited from earlier work.
A further data set is described as follows: physchem. The note with it: pH 7.4.
The subject of another data set is Caco-2 cells. Particulars: cited from earlier work; for decrease in the concentration on the Apical side: 120 minutes of incubation.

Results on 23 compounds are retold here after patent US20220096379A1, “SELF-EMULSIFYING DRUG FORMULATION FOR IMPROVING MEMBRANE PERMEABILITY OF COMPOUND” (Chugai Seiyaku Kabushiki Kaisha, priority 2016, published 2022).

Where two headings read alike, the source gives them in different places. Starred links: 1 amine or outer side, 2 acyl side, 3 side chain; linkers in the order of their positions; H or OH if unused. Positions of bridges follow the written chain, without caps; N, C: chain ends. Non-standard residues stand in square brackets, D forms with d. Residues, ends and D or L forms follow the SMILES beside them. *: point of attachment. NMeF = CN[C@@H](Cc1ccccc1)C(=O)O; NMeI = CC[C@H](C)[C@H](NC)C(=O)O; NMeβAla = CN(CCC(=O)[*:2])[*:1]; NMeL = CN[C@@H](CC(C)C)C(=O)O; NMeA = CN[C@@H](C)C(=O)O; Piperidide = C1CCN(*)CC1; Sar = CNCC(=O)O; tBu = CC(C)(C)*

Method for physchem: as §1

Consider `CO[C@H]1/C=C/O[C@@]2(C)Oc3c(C)c(O)c4c(c3C2=O)C2=NC3(CCN(CC(C)C)CC3)NC2=C(NC(=O)/C(C)=C\C=C\[C@H](C)[C@H](O)[C@@H](C)[C@@H](O)[C@@H](C)[C@H](OC(C)=O)[C@@H]1C)C4=O` [Rifabutin], for which the Papp (in general, a coefficient for how fast a substance crosses the barrier) at 180 min in data set [1] worked out at 1.08 ×10⁻⁶ cm/s. Also, in data set [2], the logD (in general, the decadic logarithm of the distribution of all forms, ionised or not, between an organic phase and buffer at a given pH) worked out at 3.88.
Consider `CC[C@H](C)[C@H]1C(=O)N[C@H](C(=O)N2CCCCC2)CC(=O)N[C@H](C(C)C)C(=O)N(C)[C@@H](Cc2ccccc2)C(=O)N(C)[C@@H](CC(C)C)C(=O)N[C@@H]([C@@H](C)O)C(=O)N(C)CC(=O)N(C)[C@@H](CC(C)C)C(=O)N[C@@H](COC(C)(C)C)C(=O)N1C` [Compound (5)] ([dV][NMeF][NMeL]T[Sar][NMeL]S(tBu)[NMeI]D-Piperidide; lactam N-9), for which, in data set [1], the Papp A→B (usually the apparent permeability from the apical to the basolateral side of a cell layer) at 180 min was found to be 1.85 ×10⁻⁶ cm/s. Further, the “intrinsic hepatic clearance CLh int” value in data set [3] (human liver microsomes) is 58 μL/min/mg protein. Moreover, the logD at 2 h in data set [2] stood at 4.31.
Compound `CC(C)C[C@H]1C(=O)N(C)[C@@H](CC(C)C)C(=O)N[C@H](C(=O)N2CCCCC2)CC(=O)N(C)CCC(=O)N(C)[C@@H](Cc2ccccc2)C(=O)N[C@@H]([C@@H](C)O)C(=O)N(C)CC(=O)N[C@@H](COC(C)(C)C)C(=O)N1C` [Compound (6)] ([NMeβAla][NMeF]T[Sar]S(tBu)[NMeL][NMeL]D-Piperidide; lactam N-8) registered a logD at 2 h in the data set “physchem” of 3.19. Besides, the “intrinsic hepatic clearance CLh int” value in data set [3] (human, microsomes) is listed as 86 μL/min/mg protein.
`CC[C@H](C)[C@H]1C(=O)N(C)[C@@H](C)C(=O)N(C)[C@@H](Cc2ccccc2)C(=O)N[C@@H]([C@@H](C)O)C(=O)N(C)[C@@H](Cc2ccccc2)C(=O)N(C)[C@@H](CC(C)C)C(=O)N2CCC[C@H]2C(=O)N[C@H](C(=O)N2CCCCC2)CC(=O)N[C@@H](C)C(=O)NCC(=O)N(C)[C@@H](CC(C)C)C(=O)N1C` [Compound (1)] (AG[NMeL][NMeI][NMeA][NMeF]T[NMeF][NMeL]PD-Piperidide; lactam N-11) showed a Papp A→B at 180 min in data set [1] of 0.262 ×10⁻⁶ cm/s. Also, the logD at 2 h in “physchem” is 5.19. For the same compound, the “intrinsic hepatic clearance CLh int” value in data set [3] (human liver microsomes) was 74 μL/min/mg protein.
Turning to `CC[C@H]1OC(=O)[C@H](C)[C@@H](O[C@H]2C[C@@](C)(OC)[C@@H](O)[C@H](C)O2)[C@H](C)[C@@H](O[C@@H]2O[C@H](C)C[C@H](N(C)C)[C@H]2O)[C@](C)(O)C[C@@H](C)CN(C)[C@H](C)[C@@H](O)[C@]1(C)O` [Azithromycin], in data set [1], the Papp at 180 min stood at 0.515 ×10⁻⁶ cm/s. Also, the logD in data set [2] worked out at 0.62.
For `CC(=O)O[C@H]1C(=O)[C@@]2(C)[C@H]([C@H](OC(=O)c3ccccc3)[C@]3(O)C[C@H](OC(=O)[C@H](O)[C@@H](NC(=O)c4ccccc4)c4ccccc4)C(C)=C1C3(C)C)[C@]1(OC(C)=O)CO[C@@H]1C[C@@H]2O` [Paclitaxel], in that order: 0.138 ×10⁻⁶ cm/s and 3.36.
`CC[C@H](C)[C@H]1C(=O)N[C@@H](COC(C)(C)C)C(=O)N[C@H](C(=O)N2CCCCC2)CC(=O)N(C)[C@@H](C)C(=O)N(C)[C@@H](Cc2ccccc2)C(=O)N(C)CC(=O)N(C)[C@@H](CC(C)C)C(=O)N[C@@H]([C@@H](C)O)C(=O)N(C)[C@@H](C)C(=O)N(C)[C@@H](CC(C)C)C(=O)N1C` [Compound (2)] ([NMeA][NMeF][Sar][NMeL]T[NMeA][NMeL][NMeI]S(tBu)D-Piperidide; lactam N-10) gave a logD at 2 h in the data set “physchem” of 4.43. Besides, in data set [3] (human liver microsomes), the “intrinsic hepatic clearance CLh int” value was 48 μL/min/mg protein.
Compound `CC[C@H](C)[C@H]1C(=O)N[C@H](C(=O)N2CCCCC2)CC(=O)N[C@H](C(C)C)C(=O)N(C)[C@@H](CC(C)C)C(=O)N(C)[C@@H](Cc2ccccc2)C(=O)N(C)[C@@H](C)C(=O)N[C@@H]([C@@H](C)O)C(=O)N(C)CC(=O)N(C)[C@@H](CC(C)C)C(=O)N[C@@H](COC(C)(C)C)C(=O)N1C` [Compound (3)] ([dV][NMeL][NMeF][NMeA]T[Sar][NMeL]S(tBu)[NMeI]D-Piperidide; lactam N-10) yielded a Papp A→B at 180 min in data set [1] of 0.249 ×10⁻⁶ cm/s. The compound also registered a logD at 2 h in the data set “physchem” of 4.18. The “intrinsic hepatic clearance CLh int” value in data set [3] (human liver microsomes) was 46 μL/min/mg protein.
Compound `CC[C@H]1OC(=O)[C@H](C)[C@@H](O[C@H]2C[C@@](C)(OC)[C@@H](O)[C@H](C)O2)[C@H](C)[C@@H](O[C@@H]2O[C@H](C)C[C@H](N(C)C)[C@H]2O)[C@](C)(O)C[C@@H](C)/C(=N\OCOCCOC)[C@H](C)[C@@H](O)[C@]1(C)O` [Roxithromycin] gave a Papp at 180 min in data set [1] of 0.108 ×10⁻⁶ cm/s. Besides, in data set [2], the logD stood at 2.04.
As for `CC(C)NCC(O)COc1cccc2ccccc12` (stereo not drawn) [propranolol], in the data set with Caco-2 cells, the “decrease in the concentration on the Apical side” value is reported as “approximately 40%” and the “added drug distributed in the cells after completion of incubation” value is recorded as “approximately 8%”.
With `CC[C@H]1OC(=O)[C@H](C)[C@@H](O[C@H]2C[C@@](C)(OC)[C@@H](O)[C@H](C)O2)[C@H](C)[C@@H](O[C@@H]2O[C@H](C)C[C@H](N(C)C)[C@H]2O)[C@](C)(O)C[C@@H](C)C(=O)[C@H](C)[C@@H](O)[C@]1(C)O` [Erythromycin], in data set [1], the Papp at 180 min was determined as 0.382 ×10⁻⁶ cm/s. In data set [2], the logD was 0.89.
Regarding `COCCc1ccc(OCC(O)CNC(C)C)cc1` (stereo not drawn) [metoprolol], in the data set with Caco-2 cells, the “decrease in the concentration on the Apical side” value is listed as “approximately 20%”.
Regarding `CO[C@H]1/C=C/O[C@@]2(C)Oc3c(C)c(O)c4c(O)c(c(/C=N/N5CCN(C)CC5)c(O)c4c3C2=O)NC(=O)/C(C)=C\C=C\[C@H](C)[C@H](O)[C@@H](C)[C@@H](O)[C@@H](C)[C@H](OC(C)=O)[C@@H]1C` [Rifampicin], in data set [1], the Papp at 180 min came out at 1.73 ×10⁻⁶ cm/s. The compound also showed a logD in data set [2] of 1.61.
`CC(C)C[C@@H]1NC(=O)[C@H](Cc2ccccc2)N(C)C(=O)[C@H](Cc2ccccc2)N(C)C(=O)[C@H](CC(C)C)NC(=O)[C@H](C)N(C)C(=O)[C@H]([C@@H](C)O)NC(=O)[C@H](C)N(C)C(=O)C[C@@H](C(=O)N2CCCCC2)NC(=O)[C@H](CC(C)C)N(C)C1=O` [Compound (4)] ([NMeA]T[NMeA]L[NMeF][NMeF]L[NMeL]D-Piperidide; lactam N-9): the Papp A→B at 180 min in data set [1] came to 4.14 ×10⁻⁶ cm/s. Moreover, the “intrinsic hepatic clearance CLh int” value in data set [3] (human liver microsomes) was 189 μL/min/mg protein. The compound further returned a logD at 2 h in data set [2] of 5.17.
For `CC(C)c1nc(CN(C)C(=O)N[C@H](C(=O)N[C@@H](Cc2ccccc2)C[C@H](O)[C@H](Cc2ccccc2)NC(=O)OCc2cncs2)C(C)C)cs1` [Ritonavir], in data set [1], the Papp at 180 min worked out at 1.74 ×10⁻⁶ cm/s. This compound returned a logD in data set [2] of 4.29.
`C=CC[C@@H]1/C=C(\C)C[C@H](C)C[C@H](OC)[C@H]2O[C@@](O)(C(=O)C(=O)N3CCCC[C@H]3C(=O)O[C@H](/C(C)=C/[C@@H]3CC[C@@H](O)[C@H](OC)C3)[C@H](C)[C@@H](O)CC1=O)[C@H](C)C[C@@H]2OC` [Tacrolimus] returned a Papp at 180 min in data set [1] of 2.48 ×10⁻⁶ cm/s. In data set [2], this compound yielded a logD of 4.19.
Compound `CCC1=C[C@@H]2CN(C1)Cc1c([nH]c3ccccc13)[C@@](C(=O)OC)(c1cc3c(cc1OC)N(C)[C@H]1[C@@](O)(C(=O)OC)[C@H](OC(C)=O)[C@]4(CC)C=CCN5CC[C@]31[C@@H]54)C2` [Vinorelbine] showed a Papp at 180 min in data set [1] of 0.0903 ×10⁻⁶ cm/s. The compound further had a logD in data set [2] of 2.82.
In data set [1], `CO[C@H]1C[C@@H]2CC[C@@H](C)[C@@](O)(O2)C(=O)C(=O)N2CCCC[C@H]2C(=O)O[C@H]([C@H](C)C[C@@H]2CC[C@@H](O)[C@H](OC)C2)CC(=O)[C@H](C)/C=C(\C)[C@@H](O)[C@@H](OC)C(=O)[C@H](C)C[C@H](C)/C=C/C=C/C=C/1C` [Rapamycin] returned a Papp at 180 min of 1.84 ×10⁻⁶ cm/s. In data set [2], this compound registered a logD of 4.36.
The compound `C[C@H]1O[C@@H](O[C@H]2[C@@H](O)C[C@H](O[C@H]3[C@@H](O)C[C@H](O[C@H]4CC[C@@]5(C)[C@H](CC[C@@H]6[C@@H]5C[C@@H](O)[C@]5(C)[C@@H](C7=CC(=O)OC7)CC[C@]65O)C4)O[C@@H]3C)O[C@@H]2C)C[C@H](O)[C@@H]1O` [Digoxin] showed a Papp at 180 min in data set [1] of 0.264 ×10⁻⁶ cm/s.
For the compound `CC[C@H]1OC(=O)[C@H](C)C(=O)[C@H](C)[C@@H](O[C@@H]2O[C@H](C)C[C@H](N(C)C)[C@H]2O)[C@](C)(OC)C[C@@H](C)C(=O)[C@H](C)[C@H]2N(CCCCn3cnc(-c4cccnc4)c3)C(=O)O[C@]12C` [Telithromycin], the Papp at 180 min in data set [1] was found to be 0.319 ×10⁻⁶ cm/s. Moreover, the logD in data set [2] was 2.1.
For `C[C@@H]1[C@H](O)[C@@H](C)/C=C/C=C/C=C/C=C/C=C/C=C/C=C/[C@H](O[C@@H]2O[C@H](C)[C@@H](O)[C@H](N)[C@@H]2O)C[C@@H]2O[C@](O)(C[C@@H](O)C[C@@H](O)[C@H](O)CC[C@@H](O)C[C@@H](O)CC(=O)O[C@H]1C)C[C@H](O)[C@H]2C(=O)O` [AmphotericinB], the Papp at 180 min in data set [1] amounted to 0.0736 ×10⁻⁶ cm/s. The same compound gave a pH-dependent lipophilicity (logD) in data set [2] of 0.11.
In turn, `CO[C@H]1/C=C/O[C@@]2(C)Oc3c(C)c(O)c4c(O)c(c(/C=N/N5CCN(C6CCCC6)CC5)c(O)c4c3C2=O)NC(=O)/C(C)=C\C=C\[C@H](C)[C@H](O)[C@@H](C)[C@@H](O)[C@@H](C)[C@H](OC(C)=O)[C@@H]1C` [Rifapentine] displayed a Papp at 180 min in data set [1] of 5.12 ×10⁻⁶ cm/s. For the same compound, in data set [2], the logD was 2.45.
On the same counts, the results for `CCC(C)n1ncn(-c2ccc(N3CCN(c4ccc(OCC5COC(Cn6cncn6)(c6ccc(Cl)cc6Cl)O5)cc4)CC3)cc2)c1=O` (stereo not drawn) [Itraconazole] are 1.06 ×10⁻⁶ cm/s and 4.29.
